Experiment [1] deals with irritating action of alpha-hydroxy acids (lactic and glycolic acids). The conditions noted are these: Rosmarinic acid 5%; cited from earlier work.
Another experiment has as its system HaCat keratinocytes. Description: Retinoid-stimulated autocrine (RSA) clonal growth assay. Particulars: 10 μM, 48 hours after treatment, relative to untreated control. It is filed as cell-based, human. Here is the method:
Since retinoids irritate skin leading to epidermal hyperplasia, it is the inventors idea that plant extracts that act as inhibitors of retinoid -stimulated autocrine growth are themselves anti-irritants. This hypothesis was tested using an in vitro keratinocyte culture model.
An immortalized line of human epidermal kertatinocytes, HaCat keratinocytes, can be cultured in a serum-free culture medium. Sterile Petri dishes (35 mm^2) are seeded at 5,000 cells per cm^2 and placed in a humidified CO2 incubator at 37° C. for 3-5 days or until the culture reaches about 30% confluent monolayer growth. The dishes are washed once with ice-cold serum-free media lacking EGF and insulin, and refed 2.5 ml of serum-free culture medium containing 5 ug/ml insulin and retinyl acetate (RA, 3×10^−8 M).—Duplicate control dishes are fixed and stained with 0.2% crystal violet to record the—amount of clonal growth prior to refeeding with fresh RA-containing medium. Test—dishes refed RA and insulin are split into three groups in duplicate. Group A is refed on the RA plus insulin medium. Group B is refed RA plus insulin medium and a TRK inhibitor (PD 15356), and Group C is refed medium containing RA plus insulin and from 0.1 to 5% of a hydroalcoholic botanical extract. All dishes are adjusted to have the same final concentration of alcohol (1%). All dishes are placed back in the incubator for 2 and 4 days. […]

These results are taken from patent US7399493B2, “Anti-irritant botanicals” (priority 2004, dated 2008).

Take `O=C(/C=C/c1ccc(O)c(O)c1)O[C@H](Cc1ccc(O)c(O)c1)C(=O)O` [Rosmarinic acid]: in experiment [1], the “reduction of the irritating action of alpha-hydroxy acids” value is “reduce by more than three-fold”. With `O.O.O=c1c(O)c(-c2ccc(O)c(O)c2)oc2cc(O)cc(O)c12` [quercetin dihydrate], the “inhibition of RSA clonal growth” value in the experiment on HaCat keratinocytes was “completely inhibited”.
